Marks after values point to notes of the source that are not given here.
What was measured:
[1] = system: rats, femoral metaphysis tissue; experiment: Oral administration to rats: bone calcium level in metaphysis tissue; format: in vivo, Wistar male rats; settings: for Bone calcium level: metaphysis tissue
Description: (§1) Bone calcium level in the bone tissue was determined. After the culture in the incubator, the tissue pieces were washed with 0.25 M sucrose solution and dried and then the bone was weighed. Then concentrated nitric acid was added to the tissue pieces. After the incineration at 120° C. for 12 hours, the bone calcium level was determined with an atomic absorption photometer (“Perkin-Elmer 303” of Perkin-Elmer Co.).
(§2) A solution of β-cryptoxanthin in corn oil having one of three kinds of concentration (10, 25 and 50 μg/ml corn oil) was orally administered to rats (Wistar male rats; 4 to 5 weeks old) in an amount/100 g body weight with a probe once a day for 7 days. The rats were sacrificed 24 hours after the final administration. The femurs were excised. The muscles, etc. were taken out and each femur was divided into diaphysis and metaphysis to determine the bone components.
(§3) Tests were conducted to examine whether the bone components are increased by the oral administration of β-cryptoxanthin to rats or not. β-cryptoxanthin was administered for 7 days (10, 25 or 50 μg/100 g body weight/day) and then calcium level in the bone tissue, determination of alkaline phosphatase activity (enzyme for the acceleration of the calcification of bones) and the amount of deoxyribonucleic acid (DNA: index of the number of the cells in the bone tissue) were determined by the same methods as those in Example 1. In each test group, the determination was conducted 6 times and the results were represented by the average value and the standard error. The significant difference was determined by Student's t-test. The result was compared with that of the control. When P value was not higher than 0.01 (*) as compared with the control, the results were statistically significant.

[2] = system: rats, femoral diaphysis tissue; experiment: Oral administration to rats: bone calcium level in diaphysis tissue; format: in vivo, Wistar male rats; settings: for Bone calcium level: diaphysis tissue
Description: as §1, §2, §3

[3] = system: diaphysis tissue of the femur (cortical bone); experiment: Bone alkaline phosphatase activity in cultured femoral diaphysis tissue pieces; format: cell-based, Wistar male rats; settings: for Bone alkaline phosphatase activity: diaphysis tissue, mean ± SE
Description: (§4) The femurs were extracted from rats (Wistar male rats; 4 to 5 weeks old) (purchased from Japan SLC Co., Ltd. and fed with solid Oriental yeast (MF)) under anesthesia with ether under a germfree condition. The femurs were each washed with 0.25 M sucrose solution, and then divided into the diaphysis (cortical bone) and metaphysis (cancellous bone). The bone tissue pieces were cultured in a culture medium (Dulbecco's modified culture medium containing 5% of glucose; serum-free medium) containing. β-cryptoxanthin, etc. at […] in an incubator filled with 5% CO2-95% air for 48 hours. β-cryptoxanthin used was “β-cryptoxanthin” of Extrasynthase Co., cycloheximide used was “Cycloheximide” of Sigma Co. Ltd., β-carotene was “β-carotene” of Sigma ? , xanthine was “Xanthine” of Sigma Co, Ltd., parathormone was “Parathormone” of Sigma Co. Ltd. and prostaglandin E2 was “Prostaglandin E2” of Sigma Co. Ltd. In the control, only the culture medium was used without β-cryptoxanthin or the like.
(§5) The expression level of alkaline phosphatase, which is the most important enzyme for the acceleration of the calcification of bones, was examined. The tissue pieces cultured in the incubator were washed in 0.25 M sucrose solution, then pulverized in 3 ml of 65 mM barbital buffer (pH 7-4) and treated with ultrasonic waves. The resultant liquid was centrifuged. The supernatant, as the enzyme solution, was determined by a method of Walter ad Schutt in Method of Enzymatic Analysis, Vol. 1-2, p. 856, Academic Press, New York, 1965). Namely, this method was carried out as follows: p-nitrophenylphosphoric acid was used as the substrate. 0.05 ml of the enzyme solution was added to 2 ml of diethanolamine buffer (pH 9.8). After the incubation at 37° C. for 30 minutes, 10 ml of 0.05 N NaOH was added to the mixture. The absorbance (405 nm) was determined with a spectrophotometer to determine bone alkaline phosphatase activity of a bone remedy or a compound known to be effective for the bones.
(§6) The bone component-increasing effect of β-cryptoxanthin was examined. The diaphysis and metaphysis tissue of the femur was cultured in the above-described culture medium containing β-cryptoxanthin ([…]) for 48 hours. Calcium level in the bone tissue, alkaline phosphatase activity (enzyme for accelerating the bone calcification) and the amount of deoxyribonucleic acid (DNA; index of number of cells in the bone tissue) were determined by the same methods as in Example 1. In each test group, the determination vas conducted 6 to 8 times and the results were represented by the average value and the standard error. The significant difference was determined by Student's t-test. The result was compared with that of the control. When P value was not higher than 0.01 (**) or not higher than 0.05 (*), the results were statistically significant.

[4] = system: rats, femoral diaphysis tissue; experiment: Oral administration to rats: bone alkaline phosphatase activity in diaphysis tissue; format: in vivo, Wistar male rats; settings: for Bone alkaline phosphatase activity: diaphysis tissue
Description: as §5, §2, §3

[5] = system: diaphysis tissue of the femur (cortical bone); experiment: Bone DNA level in cultured femoral diaphysis tissue pieces; format: cell-based, Wistar male rats; settings: for Bone DNA level: diaphysis tissue, mean ± SE
Description: as §4
DNA level was determined as an index of the number of cells in the bone tissue. After the culture in an incubator, the tissue pieces were washed with 0.25 M sucrose solution and then the wet weight of them was determined. They were pulverized in 4 ml of 0.1 N NaOH. After the osmosis at 4° C. for 24 hours, the liquid mixture was centrifuged. The supernatant was taken as the sample and determined by a method of Ceriotti et al. (J. Biol. Chem., 241; 34-77, 1951). Namely, 1 ml of concentrated hydrochloric acid and 1 ml of 0.04% indole solution were added to 2 ml of the sample and then the resultant mixture was heated to 100° C. in boiling water. After quenching followed by the extraction with 4 ml of chloroform, the chloroform layer was taken to determine bone DNA level with a spectrophotometer (490 nm).
as §6

[6] = 10, 25 or 50 μg/100 g body weight/day, 7 days
[7] = oral 10 μg/100 g body weight/day for 7 days
[8] = oral 25 μg/100 g body weight/day for 7 days
[9] = oral 50 μg/100 g body weight/day for 7 days
[10] = 10^−7 to 10^−5 M, 48 h culture, vs control
[11] = Table 2 (protein synthesis inhibitor experiment), 10^−6 M (each agent), n=6
[12] = β-cryptoxanthin 10^−6 M with cycloheximide

**Q.** With `CC1=C(/C=C/C(C)=C/C=C/C(C)=C/C=C/C=C(C)/C=C/C=C(C)/C=C/C2=C(C)C[C@@H](O)CC2(C)C)C(C)(C)CCC1` [β-cryptoxanthin] as the molecule, how does the “Effect on calcium level in the metaphysis tissue after oral administration (in words)” value [1, 6] read?
**A.** significantly increased

**Q.** And the Bone calcium level [1, 7]?
**A.** 201.5 ± 5.60* mg/g dry weight

**Q.** What about the Bone calcium level [1, 8] of the same molecule?
**A.** 200.3 ± 3.90* mg/g dry weight

**Q.** What about the Bone calcium level [1, 9] of the same molecule?
**A.** 205.9 ± 4.10* mg/g dry weight

**Q.** What about the “Effect on calcium level in the diaphysis tissue after oral administration (in words)” value [2, 6] of the same molecule?
**A.** significantly increased

**Q.** What about the Bone calcium level [2, 7] of the same molecule?
**A.** 232.8 ± 3.00* mg/g dry weight

**Q.** What about the Bone calcium level [2, 8] of the same molecule?
**A.** 248.3 ± 5.10* mg/g dry weight

**Q.** What about the Bone calcium level [2, 9] of the same molecule?
**A.** 247.5 ± 4.20* mg/g dry weight

**Q.** What about the “Effect on alkaline phosphatase activity in the diaphysis (in words)” value [3, 10] of the same molecule?
**A.** significantly increased

**Q.** What about the “Bone alkaline phosphatase activity” value [3, 11] of the same molecule?
**A.** 691.5 ± 11.2* nmol/min/mg protein

**Q.** And the “Bone alkaline phosphatase activity” value ([3]; 10^−5 M, 48 h culture)?
**A.** 644.6 ± 15.2** nmol/min/mg protein

**Q.** And the “Bone alkaline phosphatase activity” value ([3]; 10^−6 M, 48 h culture)?
**A.** 684.0 ± 17.7** nmol/min/mg protein

**Q.** And the “Bone alkaline phosphatase activity” value ([3]; 10^−7 M, 48 h culture)?
**A.** 604.2 ± 9.6* nmol/min/mg protein

**Q.** And the “Bone alkaline phosphatase activity” value ([3]; 10^−8 M, 48 h culture)?
**A.** 568.5 ± 9.5 nmol/min/mg protein

**Q.** And the “Bone alkaline phosphatase activity in diaphysis tissue increased by β-cryptoxanthin: change in the presence of cycloheximide (in words)” value [3, 12]?
**A.** significantly lowered

**Q.** What about the “Effect on alkali phosphatase activity in the diaphysis tissue after oral administration (in words)” value [4, 6] of the same molecule?
**A.** significantly increased

**Q.** What about the “Bone alkaline phosphatase activity” value [4, 7] of the same molecule?
**A.** 2.38 ± 0.019* μmol/min/mg protein

**Q.** What about the “Bone alkaline phosphatase activity” value [4, 8] of the same molecule?
**A.** 2.35 ± 0.021* μmol/min/mg protein

**Q.** What about the “Bone alkaline phosphatase activity” value [4, 9] of the same molecule?
**A.** 1.85 ± 0.025* μmol/min/mg protein

**Q.** And the “Effect on DNA level in the diaphysis tissue (in words)” value [5, 10]?
**A.** significantly increased

**Q.** And the “Bone DNA level” value [5, 11]?
**A.** 1.800 ± 0.025* mg/g bone wet weight

**Q.** And the “Bone DNA level” value ([5]; 10^−5 M, 48 h culture)?
**A.** 1.802 ± 0.063** mg/g bone wet weight

**Q.** What about the “Bone DNA level” value ([5]; 10^−6 M, 48 h culture) of the same molecule?
**A.** 1.746 ± 0.016* mg/g bone wet weight

**Q.** What about the “Bone DNA level” value ([5]; 10^−7 M, 48 h culture) of the same molecule?
**A.** 1.788 ± 0.049* mg/g bone wet weight

**Q.** And the “Bone DNA level” value ([5]; 10^−8 M, 48 h culture)?
**A.** 1.741 ± 0.099 mg/g bone wet weight

**Q.** What about the “Bone DNA level in diaphysis tissue increased by β-cryptoxanthin: change in the presence of cycloheximide (in words)” value [5, 12] of the same molecule?
**A.** significantly lowered

Reference: US8148431B2, “Osteogenesis promoter containing β-cryptoxanthin as the active ingredient” (Kemin Health, L.C., priority 2002, dated 2012)
